# From the NIST ThermoML archive (doi:10.1016/j.jct.2005.09.005)
# Numbers after ± are expanded uncertainties.
# Settings: Crystal; Adiabatic calorimetry
smiles,measurement,value
[2H]O[2H] [water-d2],Normal melting temperature,3.68 ± 0.05 °C
